Assay: Measurement of pKa from absorption spectra
Format: physicochemical
Conditions: in acetonitrile, 70% perchloric acid (solvent: acetic acid) added dropwise; proton adduct at nitrogen atom of triazine ring
Procedure: <Method for Measuring pKa>
Compound (1) was dissolved in acetonitrile to give an absorbance of 1 and to this solution, 70% perchloric acid (solvent: acetic acid) was added dropwise, thereby varying the pH. At this time, the absorption spectrum of solution was measured and based on the absorbance at λmax, the proportions of a triazine-free form and a proton adduct were calculated at each pH. From the point at which these values became equal, the pKa value was determined. Here, the triazine-free form indicates Compound (1) itself, and the proton adduct indicates a compound resulting from addition of a proton to the nitrogen atom of triazine ring of Compound (1). […] The absorption spectrum was measured using a spectrophotometer, UV-3600 (trade name), manufactured by Shimadzu Corporation, and the pH was measured using a pH meter, HM60G (trade name), manufactured by To a Denpa Kogyo. Incidentally, the absorbance is a value measured at the maximum absorption wavelength of each compound.

| Compound | pKa |
| --- | --- |
| COC(=O)c1ccc(-c2nc(-c3ccccc3O)nc(-c3ccc(OC)cc3O)n2)cc1 [Compound (104)] | -5 |
| COc1ccc(-c2nc(-c3ccc(C(=O)OCC(CCCCC(C)C)CCC(C)C)cc3)nc(-c3ccccc3O)n2)c(O)c1 (stereo not shown) [Compound (114)] | -5 |
| CCCCCCCCC(CCCCCC)COC(=O)c1ccc(-c2nc(-c3ccccc3O)nc(-c3ccc(OC)cc3O)n2)cc1 (stereo not shown) [Compound (115)] | -5 |
| CCC(C)CCCCCC(CCCC(C)CC)COC(=O)c1ccc(-c2nc(-c3ccccc3O)nc(-c3ccc(OC)cc3O)n2)cc1 (stereo not shown) [Compound (116)] | -5 |
| COc1ccc(-c2nc(-c3ccc(C(=O)OCC(CCC(C)CC(C)(C)C)C(C)CC(C)(C)C)cc3)nc(-c3ccccc3O)n2)c(O)c1 (stereo not shown) [Compound (117)] | -5 |
| CCCCCCCCCC(CCCCCCC)COC(=O)c1ccc(-c2nc(-c3ccccc3O)nc(-c3ccc(OC)cc3O)n2)cc1 (stereo not shown) [Compound (118)] | -5 |
| COc1ccc(-c2nc(-c3ccc(C(=O)OCC(CCC(C)CCCC(C)C)C(C)CCCC(C)C)cc3)nc(-c3ccccc3O)n2)c(O)c1 (stereo not shown) [Compound (119)] | -5 |
